Our source for the IC50 values is PubChem BioAssay AID492957 (The Scripps Research Institute Molecular Screening Center, 2010).

A word on the IC50: it is the concentration needed to halve the response being measured.

This experiment relates to E. coli V66 + T4 gene 2 mutant phage, OD growth. Put plainly: E. coli RecBCD inhibitors, dose response, counter-screen for AddAB inhibitor project, absorbance, V66 E. coli, mutant T4 phage (AID 492957). (Counterscreens check selectivity or assay interference.)

The structures appear in SMILES notation. Calls of active or inactive are those of the source.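 Rule for the calls: active = IC50 at or below 10 µM; inactive = IC50 above 10 µM.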

In the case of `O=C(NCc1cccnc1)c1ccc([N+](=O)[O-])o1`, the IC50 was 86.4 µM (inactive).
